Data set [1] in a line: Pharmacokinetics after repeated administration (Q7D×3) to rats. It counts as in vivo. Here is the method:
Each rat received a 30 minute infusion once a week for three weeks (Q7D×3).
Br-IPM being capable of reacting with water and a number of other nucleophiles, for HPLC analysis of Br-IPM, the plasma obtained was frozen and treated with NaF and potassium oxalate.

Data set [2] can be described thus: Pharmacokinetics after repeated administration (Q7D×3) to dogs. The class given is in vivo. The text has this:
These changes were reversible.

In data set [3] the test system is IGROV1 human ovarian cancer cells. The data set can be described thus: IGROV1 ovarian cancer xenograft. It counts as in vivo. As to conditions: CDDP 4 mg/kg and 6 mg/kg i.p. Q7D×2 (both doses). The procedure: Forty nude mice were subcutaneously implanted with IGROV1 human ovarian cancer cells (5×10^6 cells/mouse). The tumor volumes were measured twice weekly starting on day 7. On day 8, tumor volumes reached about 97.7±3.9 mm^3. The mice were randomized in 3 treatment groups that were administered the following: CDDP (4 mg/kg, ip, Q7D×2), CDDP (6 mg/kg, i.p. Q7D×2), and TH302 (75 mg/kg, i.v., Q7D×2). A control group of mice were administered saline. […] Forty five days after the first administration of TH302, tumor growth inhibition was 66%. The tumor growth delay (to 300 mm^3) was 19 days.

Data set [4] deals with HT29 Human colorectal cancer cells. In words: HT29 xenograft, TH302 in combination with irinotecan. The class given is in vivo, mice. As to conditions: CPT-11 monotherapy 50 mg/kg i.p. Q7D×3, vs control group. The procedure:
TH302 and irinotecan (CPT-11) were formulated as follows: TH302 (7.5 mg/mL) in saline and CPT-11 (5 mg/mL) in 2% Tween80-saline. The formulations were filtered through a 0.2 μm filter then delivered to animals within one hour after it was made. HT29 Human colorectal cancer cells were prepared in 50% matrigel and 50% RPMI 1640 medium and implanted (3×10^6 cells) in the subcutaneous space of the right flank of 90 mice (0.2 mL/mouse). Tumor volumes reached about 160 mm^3 on day 12 day post implantation. Seventy two animals with similar tumor size were chosen for treatment after randomization. The remaining mice were used as no treatment control.
The mice were administered TH302 intravenously at 75 mg/kg, once per week for 2 weeks (Q7D×2, i.v.) alone, and in combination with CPT-11, administered at, 50 mg/kg, (Q7D×3, intraperitoneally (i.p.)). […] After dosing started, tumor volumes were measured twice per week. […] For the mice administered CPT-11 alone, i.e., those on CPT-11 monotherapy, 41% tumor growth inhibition was observed compared to the control group of mice.

The subject of data set [5] is PC-3 human prostate tumor. The data set can be described thus: GFP PC3 prostate orthotopic model. The class given is in vivo, mice.
The subject of data set [6] is PC-3 human prostate cells. In words: PC-3 luciferase intracardiac metastasis model (bioluminescence). It counts as in vivo, nude mice. Here is the method:
Male nude mice were injected into their left ventricle with PC-3 human prostate cells (3×10^6) transfected with the gene for luciferase. The success of the intracardiac transfections was verified by a bioluminescence scan after the injection. On day 14, the mice with established bone tumor burden were randomized into four treatment groups (N=10): Taxotere® alone (20 mg/kg once a week for three weeks, i.v.), TH302 alone (50 mg/kg daily, 5 days a week for 3 weeks), combination treatment with both agents, and vehicle. Bioluminescence imaging was performed under anesthesia using an IVIS 50 optical imaging system.

The mark [7] stands for this setting: bromo-IPM in rats after TH302 12.5 mg/kg Q7D×3, Day 15.
The mark [8] stands for this setting: bromo-IPM in rats after TH302 25 mg/kg Q7D×3, Day 15.
Setting [9] is: bromo-IPM in rats after TH302 50 mg/kg Q7D×3, Day 15.
Setting [10] is: bromo-IPM in dogs after TH302 8 mg/kg Q7D×3, Day 15.
The mark [11] stands for this setting: bromo-IPM in dogs after TH302 16 mg/kg Q7D×3, Day 15.

4 compounds from US8552048B2, “Phosphoramidate alkylator prodrugs for the treatment of cancer” (Threshold Pharmaceuticals, Inc., priority 2006, dated 2013) can be followed below.

Turning to `O=P(O)(NCCBr)NCCBr` [Br-IPM, HO—P(═O)(NHCH2CH2Br)2], the results for the AUC in data set [1] (setting [7]), in data set [1] (setting [8]) and in data set [1] (setting [9]) were 107 ng·h/mL, 97 ng·h/mL and 143 ng·h/mL, respectively. Further, the Cmax (in general, the maximum level reached in the sampled fluid or tissue) in data set [1] (setting [7]) is 286 ng/mL; in data set [1] (setting [8]) it was 375 ng/mL; in data set [1] (setting [9]), 385 ng/mL; in data set [2] (setting [10]), 62.7 ng/mL; in data set [2] (setting [11]), 146 ng/mL. Besides, the half-life (in general, the time needed for the level to fall by half in the phase considered) in data set [1] (setting [7]) came to 8.88 min; in data set [1] (setting [8]), 8.28 min; in data set [1] (setting [9]), 23 min; in data set [2] (setting [11]), 18.3 min. Moreover, the “AUC of the active toxin Br-IPM” value in data set [1] (rats, after TH302 25 mg/kg) is listed as “about 97 h×ng/mL”; in data set [2] (dogs, after TH302 8 mg/kg) it was “about 21.8 h×ng/mL”. Also, the AUClast in data set [2] (setting [10]) is 21.8 ng·h/mL; in data set [2] (setting [11]), 60.7 ng·h/mL.

In the case of `N.N.[Cl][Pt][Cl]` [CDDP, reference compound], the “reduction in tumor volume” value in data set [3] is “did not show significant reduction in tumor volume”.

For the compound `CCc1c2c(nc3ccc(OC(=O)N4CCC(N5CCCCC5)CC4)cc13)-c1cc3c(c(=O)n1C2)COC(=O)[C@]3(O)CC` [CPT-11, irinotecan], in data set [4], the tumor growth inhibition came out at 41%.

Take `CC(=O)O[C@@]12CO[C@@H]1C[C@H](O)[C@@]1(C)C(=O)[C@H](O)C3=C(C)[C@@H](OC(=O)[C@H](O)[C@@H](NC(=O)OC(C)(C)C)c4ccccc4)C[C@@](O)([C@@H](OC(=O)c4ccccc4)[C@H]21)C3(C)C` [Taxotere®, Docetaxel]: the “tumor volume regressed to” value in data set [5] (Taxotere 12 mg/kg once a week for two weeks, alone or with TH302) worked out at 21±15 mm^3. The “tumor volume on day 62” value in data set [5] (Taxotere alone or with TH302, P<0.01 combination vs Taxotere alone) came to 766 mm^3. Moreover, the “tumor growth delay (TGD)” value in data set [5] (single agent, Taxotere 12 mg/kg once a week for two weeks) was found to be 31 days. In data set [6] (TH302 50 mg/kg daily 5 days a week for 3 weeks, Taxotere 20 mg/kg once a week for three weeks i.v., or both), the “toxicities (weight loss, deaths)” value was “weight loss and a toxicity-related death”. In addition, the “bone metastases and soft tissue tumor burden compared to vehicle” value in data set [6] (Taxotere alone 20 mg/kg once a week for three weeks, i.v.) is “significant reduction in bone metastases and soft tissue tumor burden”.
